# Data published in paper PMC3871589, “Evaluation of STAT3 Signaling in ALDH+ and ALDH+/CD44+/CD24− Subpopulations of Breast Cancer Cells” (PLoS ONE, 2013).
# Tests used:
# Type in all cases: cell-based, human
# [1] = system: ALDH+ subpopulations of SK-BR-3, MDA-MB-231, and SUM159; experiment: Tumorsphere formation, ALDH+ subpopulations; conditions: 2.5–10 µmol/L, 10 to 15 days
# Experimental: ALDH^+ and ALDH^+/CD44^+/CD24^− cells were plated as single cells in ultra-low attachment six-well plates at a density of 250, 500, 1000 or 50,000 viable cells/well as previously described. On the second day after seeding, the ALDH^+ cancer cells were treated with 2.5–10 µmol/L of LLL12 or Stattic. For tumorsphere forming capacity assay, ALDH^+ or ALDH^− cells were plated as single cells in ultra-low attachment six-well plates at a density of 250, 500 or 1000 viable cells/well. Tumorsphere growth was observed under a microscope 10 to 15 days later.
# [2] = system: ERK1/2 phosphorylation; experiment: ERK1/2 phosphorylation in ALDH+ cells; conditions: ALDH+ breast cancer stem-like cells; 10 µmol/L, 24 hours
# Experimental: After sorting by flow cytometry, ALDH^+ and ALDH^+/CD44^+/CD24^− stem-like cells were cultured in serum-free stem cell medium in ultra-low attachment six-well plates (Corning) to maintain cancer stem cell characteristics. ALDH^−, ALDH^−/CD44^+/CD24^+cells and un-separated cells were cultured in regular medium and replaced with identical stem cell medium for three days before being harvested. To assess the effects of STAT3 inhibitors, ALDH^+ and ALDH^+/CD44^+/CD24^− subpopulations of breast cancer cells were treated with LLL12 (5 µmol/L) of or static (10 µmol/L) for 24 hours. STAT3, or control GFP shRNA lentivirus (CTL ShRNA) was introduced into ALDH^+ breast cancer stem-like cells for 48 hours, then followed by selection with puromycin (0.2 µg/ml) for 72 hours. Antibodies (Cell Signaling Tech.) against phospho-specific STAT3 (Tyrosine 705) (P-STAT3, Y705), ERK1/2 (Threonine 202/Tyrosine 204), cleaved Poly (ADP-ribose) polymerase (PARP), ALDH1, cleaved caspase-3, and GAPDH were used for western blots.
# [3] = system: ALDH+ subpopulation from MDA-MB-231, SUM159, and SK-BR3 cells; experiment: MTT cell viability assay, ALDH+ subpopulation; conditions: 1 to 10 µmol/L 72 hours, ShRNA 48 hours
# Experimental: (§1) The breast cancer cells were seeded in 96-well plates (3,000 cells/well) in triplicates in a serum-free mammary epithelial basal medium. The following day, cancer cells were treated with 1 to 10 µmol/L of LLL12 or Stattic for 72 hours, STAT3 ShRNA or control GFP shRNA lentivirus (CTL ShRNA) for 48 hours. MTT (Thiazolyl Blue Tetrazolium Bromide, Sigma-Aldrich) assay was used to determine the cell viability.
# [4] = system: ALDH+ subpopulation in MDA-MB-231, SUM159, and SK-BR3 cancer cells; experiment: ALDEFLUOR assay, percentage of ALDH+ subpopulation; conditions: un-separated MDA-MB-231, SUM159, SK-BR3; LLL12 5 µmol/L or Stattic 10 µM, 24 hours
# Experimental: (§2) The ALDEFLUOR kit (StemCell Technologies) was used to isolate the population with high ALDH enzymatic activity as previously described. Briefly, cells were trypsinized to single cells using 0.05% trypsin and subsequently suspended in ALDEFLUOR assay buffer containing ALDH substrate (BAAA, 1 µmol/l per 1×10^6 cells) and then incubated for 40 minutes at 37°C. For each sample, an aliquot of cells was stained under identical conditions with 15 mmol/L diethylaminobenzaldehyde (DEAB), a specific ALDH inhibitor, as an ALDH^− control. Anti-human PE-CD24 and PE-Cy5-CD44 antibody (BioLegend) were used for CD44/CD24 identification and to separate ALDH^+/CD44^+/CD24^− and ALDH^−/CD44^+/CD24^+ cells when combined with ALDH staining. Analysis was performed using a FACStarPLUS (Becton Dickinion) flow cytometer. To assess the effect of STAT3 inhibitors on the subpopulation of ALDH^+ cells, un-separated breast cancer cells were treated with 5 µmol/L of LLL12 or 10 µmol/L Stattic for 24 hours prior to performing the ALDEFLUOR assay.
# [5] = system: ALDH− cells; experiment: MTT cell viability assay, ALDH− subpopulation; conditions: Figure S4
# Experimental: as §1
# [6] = system: STAT3 phosphorylation (Y705); experiment: Western blot of STAT3 phosphorylation in ALDH+ cells; conditions: LLL12 5 µmol/L or Stattic 10 µmol/L 24 hours, ShRNA 48 hours then puromycin
# Experimental: as §2
# After sorting by flow cytometry, ALDH^+ and ALDH^+/CD44^+/CD24^− stem-like cells were cultured in serum-free stem cell medium in ultra-low attachment six-well plates (Corning) to maintain cancer stem cell characteristics. […]
smiles,measurement,setting,value
"O=[N+]([O-])c1ccc2c(c1)S(=O)(=O)C=C2 [Stattic, reference compound]",tumorsphere formation,[1],suppress
same,ERK1/2 phosphorylation,[2],not
same,cell viability of the ALDH+ subpopulation,[3],inhibit
same,ALDH+ subpopulation (percentage),[4],decreased
same,effects against the ALDH− cells (cell viability),[5],some inhibitory effects
same,STAT3 phosphorylation in ALDH+ cells,[6],reduced
